Assays:
Format in all cases: in vivo
[1] = system: upland rice (Oryza sp., var. Tebonnet, RICE); test: Post-emerge test, crop safety; details: phytotoxicity rating 0-100 (0 no damage, 100 complete death), 14 days after application
Method in brief: (§1)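 Compounds in acetone were track-sprayed at 15-1000 g ai/ha (187 l/ha) on sandy loam pots: pre-emerge one day after seeding, post-emerge at 2-3 leaf stage with 0.25% v/v non-ionic surfactant. Phytotoxicity was rated 14 days later on a 0 (no damage) to 100 (complete death) scale.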

[2] = system: field corn (Zea mays L., var. Dekalb 535, CORN); test: Post-emerge test, crop safety; details: phytotoxicity rating 0-100 (0 no damage, 100 complete death), 14 days after application
Method in brief: as §1

[3] = system: johnsongrass (Sorghum halepense, SORHA); test: Pre-emerge test, greenhouse herbicide activity screening; details: pre-emerge, rated 14 days after application, 0 = no damage, 100 = complete death
Method in brief: as §1

[4] = system: sicklepod (Cassia obtusifolia, CASOB); test: as above; details: pre-emerge, rated 14 days after application, 0 = no damage, 100 = complete death
Method in brief: as §1

[5] = system: velvetleaf (Abutilon theophrasti, ABUTH); test: as above; details: pre-emerge, rated 14 days after application, 0 = no damage, 100 = complete death
Method in brief: as §1

[6] = system: green foxtail (Setaria viridis, SETVI); test: as above; details: pre-emerge, rated 14 days after application, 0 = no damage, 100 = complete death
Method in brief: as §1

[7] = system: ivyleaf morningglory (Ipomoea hederacea, IPOHE); test: as above; details: pre-emerge, rated 14 days after application, 0 = no damage, 100 = complete death
Method in brief: as §1

[8] = system: lambsquarters (Chenopodium album, CHEAL); test: as above; details: pre-emerge, rated 14 days after application, 0 = no damage, 100 = complete death
Method in brief: as §1

[9] = system: barnyardgrass (Echinochloa crus-galli, ECHCG); test: as above; details: pre-emerge, rated 14 days after application, 0 = no damage, 100 = complete death
Method in brief: as §1

[10] = system: common ragweed (Ambrosia artemisizfolia L., AMBEL); test: as above; details: pre-emerge, rated 14 days after application, 0 = no damage, 100 = complete death
Method in brief: as §1

[11] = system: large crabgrass (Digitaria sanguinalis, DIGSA); test: as above; details: pre-emerge, rated 14 days after application, 0 = no damage, 100 = complete death
Method in brief: as §1

[12] = system: johnsongrass (Sorghum halepense, SORHA); test: Post-emerge test, greenhouse herbicide activity screening; details: phytotoxicity rating 0-100 (0 no damage, 100 complete death), 14 days after application
Method in brief: (§2)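 Compounds in acetone were track-sprayed at 187 l/ha, 15–1000 g ai/ha, onto sandy loam pots. Pre-emerge seeds were sown one day before spraying, with surface watering afterwards. Post-emerge plants were at the 2–3 leaf stage and sprayed with 0.25% v/v non-ionic surfactant. Injury was rated 0–100 at 14 days.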

[13] = system: redroot pigweed (Amaranthus retroflexus, AMARE); test: as above; details: phytotoxicity rating 0-100 (0 no damage, 100 complete death), 14 days after application
Method in brief: as §2

[14] = system: sicklepod (Cassia obtusifolia, CASOB); test: as above; details: phytotoxicity rating 0-100 (0 no damage, 100 complete death), 14 days after application
Method in brief: as §2

[15] = system: velvetleaf (Abutilon theophrasti, ABUTH); test: as above; details: phytotoxicity rating 0-100 (0 no damage, 100 complete death), 14 days after application
Method in brief: as §2

[16] = system: green foxtail (Setaria viridis, SETVI); test: as above; details: phytotoxicity rating 0-100 (0 no damage, 100 complete death), 14 days after application
Method in brief: as §2

[17] = system: ivyleaf morningglory (Ipomoea hederacea, IPOHE); test: as above; details: phytotoxicity rating 0-100 (0 no damage, 100 complete death), 14 days after application
Method in brief: as §2

[18] = system: lambsquarters (Chenopodium album, CHEAL); test: as above; details: phytotoxicity rating 0-100 (0 no damage, 100 complete death), 14 days after application
Method in brief: as §2

[19] = system: barnyardgrass (Echinochloa crus-galli, ECHCG); test: as above; details: phytotoxicity rating 0-100 (0 no damage, 100 complete death), 14 days after application
Method in brief: as §2

[20] = system: common ragweed (Ambrosia artemisizfolia L., AMBEL); test: as above; details: phytotoxicity rating 0-100 (0 no damage, 100 complete death), 14 days after application
Method in brief: as §2

[21] = system: large crabgrass (Digitaria sanguinalis, DIGSA); test: as above; details: phytotoxicity rating 0-100 (0 no damage, 100 complete death), 14 days after application
Method in brief: as §2

[22] = system: upland rice (Oryza sp., var. Tebonnet, RICE); test: Pre-emerge test, crop safety; details: pre-emerge, rated 14 days after application, 0 = no damage, 100 = complete death
Method in brief: (§3)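 Sandy loam pots; pre-emerge: sown 1 d pre-spray, surface-watered after, then bottom-watered. Post-emerge: sown 8–21 d before, 2–3 leaf stage, + 0.25% v/v NIS, bottom-watered. Acetone, 187 l/ha track spray, 15–1000 g ai/ha. 0–100 injury score, day 14.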

[23] = system: field corn (Zea mays L., var. Dekalb 535, CORN); test: Pre-emerge test, crop safety; details: pre-emerge, rated 14 days after application, 0 = no damage, 100 = complete death
Method in brief: as §3

[24] = system: redroot pigweed (Amaranthus retroflexus, AMARE); test: Pre-emerge test, greenhouse herbicide activity screening; details: pre-emerge, rated 14 days after application, 0 = no damage, 100 = complete death
Method in brief: as §3

For `COc1c(Cl)cc(F)c(-n2c(=O)cc(C(F)(F)F)n(C)c2=O)c1N(C)C` [Compound 1-11, 3-(4-chloro-2-dimehtylainino-6-fluoro-3-methoxyphenyl)-1-methyl-6-trifluoromethyl-2,4(1H, 3H)-pyrimidinedione], the “Post-emerge Herbicidal Activity RICE (crop damage)” value ([1]; 63 g ai/ha) was 0, the “Post-emerge Herbicidal Activity RICE (crop damage)” value ([1]; 250 g ai/ha) was 0 and the “Post-emerge Herbicidal Activity CORN (crop damage)” value ([2]; 63 g ai/ha) was 0. The “Post-emerge Herbicidal Activity CORN (crop damage)” value ([2]; 250 g ai/ha) was 0, the “Pre-emerge Herbicidal Activity SORHA (phytotoxicity rating, scale 0-100)” value ([3]; 63 g ai/ha) was 90 and the “Pre-emerge Herbicidal Activity SORHA (phytotoxicity rating, scale 0-100)” value ([3]; 250 g ai/ha) was 98. For the same compound, the “Pre-emerge Herbicidal Activity CASOB (phytotoxicity rating, scale 0-100)” value ([4]; 63 g ai/ha) was 20, the “Pre-emerge Herbicidal Activity CASOB (phytotoxicity rating, scale 0-100)” value ([4]; 250 g ai/ha) was 60 and the “Pre-emerge Herbicidal Activity ABUTH (phytotoxicity rating, scale 0-100)” value ([5]; 63 g ai/ha) was 100. The “Pre-emerge Herbicidal Activity ABUTH (phytotoxicity rating, scale 0-100)” value ([5]; 250 g ai/ha) was 100, the “Pre-emerge Herbicidal Activity SETVI (phytotoxicity rating, scale 0-100)” value ([6]; 63 g ai/ha) was 80 and the “Pre-emerge Herbicidal Activity SETVI (phytotoxicity rating, scale 0-100)” value ([6]; 250 g ai/ha) was 100. The “Pre-emerge Herbicidal Activity IPOHE (phytotoxicity rating, scale 0-100)” value ([7]; 63 g ai/ha) was 20, the “Pre-emerge Herbicidal Activity IPOHE (phytotoxicity rating, scale 0-100)” value ([7]; 250 g ai/ha) was 90 and the “Pre-emerge Herbicidal Activity CHEAL (phytotoxicity rating, scale 0-100)” value ([8]; 63 g ai/ha) was 100. For the same compound, the “Pre-emerge Herbicidal Activity CHEAL (phytotoxicity rating, scale 0-100)” value ([8]; 250 g ai/ha) was 100, the “Pre-emerge Herbicidal Activity ECHCG (phytotoxicity rating, scale 0-100)” value ([9]; 63 g ai/ha) was 0 and the “Pre-emerge Herbicidal Activity ECHCG (phytotoxicity rating, scale 0-100)” value ([9]; 250 g ai/ha) was 95. For the same compound, the “Pre-emerge Herbicidal Activity AMBEL (phytotoxicity rating, scale 0-100)” value ([10]; 63 g ai/ha) was 50, the “Pre-emerge Herbicidal Activity AMBEL (phytotoxicity rating, scale 0-100)” value ([10]; 250 g ai/ha) was 100 and the “Pre-emerge Herbicidal Activity DIGSA (phytotoxicity rating, scale 0-100)” value ([11]; 63 g ai/ha) was 90. For the same compound, the “Pre-emerge Herbicidal Activity DIGSA (phytotoxicity rating, scale 0-100)” value ([11]; 250 g ai/ha) was 100, the “Post-emerge Herbicidal Activity SORHA” value ([12]; 63 g ai/ha) was 0 and the “Post-emerge Herbicidal Activity SORHA” value ([12]; 250 g ai/ha) was 0. The “Post-emerge Herbicidal Activity AMARE” value ([13]; 63 g ai/ha) was 40, the “Post-emerge Herbicidal Activity AMARE” value ([13]; 250 g ai/ha) was 60 and the “Post-emerge Herbicidal Activity CASOB” value ([14]; 63 g ai/ha) was 0. For the same compound, the “Post-emerge Herbicidal Activity CASOB” value ([14]; 250 g ai/ha) was 0, the “Post-emerge Herbicidal Activity ABUTH” value ([15]; 63 g ai/ha) was 70 and the “Post-emerge Herbicidal Activity ABUTH” value ([15]; 250 g ai/ha) was 100. For the same compound, the “Post-emerge Herbicidal Activity SETVI” value ([16]; 63 g ai/ha) was 0, the “Post-emerge Herbicidal Activity SETVI” value ([16]; 250 g ai/ha) was 50 and the “Post-emerge Herbicidal Activity IPOHE” value ([17]; 63 g ai/ha) was 40. The “Post-emerge Herbicidal Activity IPOHE” value ([17]; 250 g ai/ha) was 70, the “Post-emerge Herbicidal Activity CHEAL” value ([18]; 63 g ai/ha) was 50 and the “Post-emerge Herbicidal Activity CHEAL” value ([18]; 250 g ai/ha) was 95. For the same compound, the “Post-emerge Herbicidal Activity ECHCG” value ([19]; 63 g ai/ha) was 0, the “Post-emerge Herbicidal Activity ECHCG” value ([19]; 250 g ai/ha) was 0 and the “Post-emerge Herbicidal Activity AMBEL” value ([20]; 63 g ai/ha) was 10. For the same compound, the “Post-emerge Herbicidal Activity AMBEL” value ([20]; 250 g ai/ha) was 10, the “Post-emerge Herbicidal Activity DIGSA” value ([21]; 63 g ai/ha) was 0 and the “Post-emerge Herbicidal Activity DIGSA” value ([21]; 250 g ai/ha) was 0. For the same compound, the “Pre-emerge crop damage RICE (phytotoxicity rating, scale 0-100)” value ([22]; 63 g ai/ha) was 20, the “Pre-emerge crop damage RICE (phytotoxicity rating, scale 0-100)” value ([22]; 250 g ai/ha) was 70 and the “Pre-emerge crop damage CORN (phytotoxicity rating, scale 0-100)” value ([23]; 63 g ai/ha) was 0. For the same compound, the “Pre-emerge crop damage CORN (phytotoxicity rating, scale 0-100)” value ([23]; 250 g ai/ha) was 60, the “Pre-emerge Herbicidal Activity AMARE (phytotoxicity rating, scale 0-100)” value ([24]; 63 g ai/ha) was 100 and the “Pre-emerge Herbicidal Activity AMARE (phytotoxicity rating, scale 0-100)” value ([24]; 250 g ai/ha) was 100.

Source: US6355799B1, “Substituted benzene compounds, process for their preparation, and herbicidal and defoliant compositions containing them” (ISK Americas Incorporated, priority 1997, dated 2002)
